biological target: T1, human PAH with the R408W mutation (Homo sapiens, UniProt P00439, R408W); test: Cell Based Phenylalanine Flux Assay; parameters: scale not given here; details: A375 R408W cells, 24 hrs with compound, then 20 μM sepiapterin and 800 μM 13C9,15N-Phenylalanine for 4 hours; 13C-Tyrosine by LC-MS; average where tested multiple times
T1 construct: expressed in transfected cells
T1 sequence (P00439 1-452 R408W): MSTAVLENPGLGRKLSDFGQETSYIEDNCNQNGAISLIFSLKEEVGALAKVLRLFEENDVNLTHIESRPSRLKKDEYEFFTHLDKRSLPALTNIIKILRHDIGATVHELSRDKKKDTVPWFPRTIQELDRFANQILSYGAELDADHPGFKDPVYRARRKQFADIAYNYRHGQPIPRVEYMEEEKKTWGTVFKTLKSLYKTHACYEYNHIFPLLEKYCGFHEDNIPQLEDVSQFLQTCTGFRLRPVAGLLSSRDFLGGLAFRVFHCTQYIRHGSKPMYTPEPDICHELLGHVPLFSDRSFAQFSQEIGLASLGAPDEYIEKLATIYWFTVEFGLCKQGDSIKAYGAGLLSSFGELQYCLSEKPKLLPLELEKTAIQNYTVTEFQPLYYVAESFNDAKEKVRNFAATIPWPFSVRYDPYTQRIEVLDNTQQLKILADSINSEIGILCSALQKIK

AC50	SMILES
E, E	Cc1nnc(C(=O)N2CC(C)c3[nH]cnc3C2c2cc3ccccc3cn2)o1 [(4S, 7S) diastereomer of 3-[7-methyl-5-(5-methyl-1,3,4-oxadi]

same assay, conditions: A375 R408W cells, 24 hrs with compound, then 20 μM sepiapterin and 800 μM 13C9,15N-Phenylalanine for 4 hours; 13C-Tyrosine by LC-MS; average where tested multiple times; read-out: AC50

AC50	SMILES
1000 to 5000 nM	O=C(c1nnc(CCN2CCOCC2)o1)N1CCc2[nH]cnc2C1c1ccc2ccccc2n1 (centres unmarked) [listing 1 of 2 here]
1000 to 5000 nM	CC(C)(O)c1ncc(C(=O)N2CCc3[nH]cnc3C2c2cc3ccccc3cn2)o1 (single isomer, unassigned)
1000 to 5000 nM	Cc1ncoc1C(=O)N1CC2(CC2)c2[nH]cnc2C1c1ccc2ccccc2n1 (centres unmarked)
1000 to 5000 nM	O=C(c1cnc(-c2ccccn2)o1)N1CCc2[nH]cnc2C1c1cc2ccccc2nn1 (centres unmarked)

Further lines, the molecule ahead of its results:

SMILES	AC50
CC(C)(O)c1ccc2c(C(=O)N3CCc4[nH]cnc4C3c3cc4ccccc4cn3)cnn2c1 (centres unmarked)	> 5000 nM
O=C(c1oc(-c2ccccn2)nc1C1CC1)N1CCc2nc[nH]c2[C@H]1c1cn2ccccc2n1 (single isomer, unassigned)	> 5000 nM
O=C(Cc1ccccn1)N1CCc2[nH]cnc2C1c1cn2ccccc2n1 (centres unmarked)	> 5000 nM
O=C(c1nnc(CCN2CCOCC2)o1)N1CCc2[nH]cnc2C1c1ccc2ccccc2n1 (centres unmarked) [listing 2 of 2 here]	> 5000 nM
O=C(CCc1nc2ccccc2o1)N1CCc2[nH]cnc2C1c1cn2ccccc2n1 (centres unmarked)	1000 to 5000 nM
O=C(c1nnc(-c2cn[nH]c2)o1)N1CCc2[nH]cnc2C1c1ccc2ccccc2n1 (centres unmarked)	> 5000 nM
CC1CN(C(=O)c2nnc(N3CCOCC3)o2)C(c2cc3ccccc3cn2)c2nc[nH]c21 (centres unmarked)	> 5000 nM
O=C(c1nnc(-c2ccccn2)o1)N1CCc2[nH]cnc2C1c1cc2ccccc2nn1 (centres unmarked)	1000 to 5000 nM
O=C(c1cncs1)N1CCc2[nH]cnc2C1c1cn2ccccc2n1 (centres unmarked)	> 5000 nM

same assay, conditions: A375 cells expressing human R408W PAH; 24 hrs compound incubation; 13C-Tyrosine by LC-MS; average where tested multiple times; read-out: AC50

AC50	SMILES
> 5000 nM	CN(C)Cc1ccc2c(C(=O)N3CCc4[nH]cnc4[C@@H]3c3cc4ccccc4cn3)cnn2c1 [Example 331, (S)-(6-((dimethylamino)methyl)pyrazolo[1,5-a]pyridin-3-yl)(4-(isoquinolin-3-yl)-6,7-dihydro-1H-imidazo[4,5-c]pyridin-5(4H)-yl)methanone]
< 500 nM	O=C(c1nnc(-c2cnn(C(F)F)c2)o1)N1CCc2[nH]cnc2C1c1ccc2ccccc2n1 (stereo in doubt) [Example 63, (R)-(5-(1-(difluoromethyl)-1H-pyrazol-4-yl)-1,3,4-oxadiazol-2-yl)(4-(quinolin-2-yl)-6,7-dihydro-1H-imidazo[4,5-c]pyridin-5(4H)-yl)methanone]
500 to 1000 nM	CCn1cnnc1C(=O)N1CCc2[nH]cnc2C1c1ccc2ccccc2n1 (stereo in doubt) [Example 270, (R)-(4-ethyl-4H-1,2,4-triazol-3-yl)(4-(quinolin-2-yl)-6,7-dihydro-1H-imidazo[4,5-c]pyridin-5(4H)-yl)methanone]
< 500 nM	O=C(c1nnc(-c2ccncc2)o1)N1CCc2[nH]cnc2[C@H]1c1cc2ccccc2cn1 [Example 448, (R)-(4-(isoquinolin-3-yl)-6,7-dihydro-1H-imidazo[4,5-c]pyridin-5(4H)-yl)(5-(pyridin-4-yl)-1,3,4-oxadiazol-2-yl)methanone]
1000 to 5000 nM	CC(F)(F)c1ncc(C(=O)N2CCc3[nH]cnc3C2c2ccc3ccccc3n2)s1 (stereo in doubt) [Example 40, (S)-(2-(1,1-difluoroethyl)thiazol-5-yl)(4-(quinolin-2-yl)-6,7-dihydro-1H-imidazo[4,5-c]pyridin-5(4H)-yl)methanone]
> 5000 nM	O=C(c1cnc(-c2ccccn2)o1)N1CCc2[nH]cnc2C1c1ccc2ccccc2n1 (stereo in doubt) [Example 62, (S)-(2-(pyridin-2-yl)oxazol-5-yl)(4-(quinolin-2-yl)-6,7-dihydro-1H-imidazo[4,5-c]pyridin-5(4H)-yl)methanone]
< 500 nM	O=C(c1oc(-c2ccccn2)nc1C1CC1)N1CCc2[nH]cnc2C1c1ccc2ccccc2n1 (stereo in doubt) [Example 43, (R)-(4-cyclopropyl-2-(pyridin-2-yl)oxazol-5-yl)(4-(quinolin-2-yl)-6,7-dihydro-1H-imidazo[4,5-c]pyridin-5(4H)-yl)methanone]

Continued, molecule first:

SMILES	AC50
Cn1cncc1-c1nnc(C(=O)N2CCc3[nH]cnc3[C@H]2c2cc3ccccc3cn2)o1 [Example 444, (R)-(4-(isoquinolin-3-yl)-6,7-dihydro-1H-imidazo[4,5-c]pyridin-5(4H)-yl)(5-(1-methyl-1H-imidazol-5-yl)-1,3,4-oxadiazol-2-yl)methanone]	500 to 1000 nM
O=C(c1cnc(-c2cnn(CC(F)(F)F)c2)s1)N1CCc2[nH]cnc2[C@H]1c1cc2ccccc2cn1 [Example 306, (R)-(4-(isoquinolin-3-yl)-6,7-dihydro-1H-imidazo[4,5-c]pyridin-5(4H)-yl)(2-(1-(2,2,2-trifluoroethyl)-1H-pyrazol-4-yl)thiazol-5-yl)methanone]	500 to 1000 nM
C[C@H]1CN(C(=O)c2cnco2)[C@H](c2cc3ccccc3cn2)c2nc[nH]c21 [Example 503, ((4R,7S)-4-(isoquinolin-3-yl)-7-methyl-6,7-dihydro-1H-imidazo[4,5-c]pyridin-5(4H)-yl)(oxazol-5-yl)methanone]	500 to 1000 nM
CC(C)(O)c1nc(C2CC2)c(C(=O)N2CCc3[nH]cnc3[C@H]2c2cc3ccccc3cn2)o1 [Example 378, (R)-(4-cyclopropyl-2-(2-hydroxypropan-2-yl)oxazol-5-yl)(4-(isoquinolin-3-yl)-6,7-dihydro-1H-imidazo[4,5-c]pyridin-5(4H)-yl)methanone]	< 500 nM
O=C(c1nnc(-c2ccc(F)cn2)o1)N1CCc2[nH]cnc2C1c1ccc2ccccc2n1 (stereo in doubt) [Example 33, (R)-(5-(5-fluoropyridin-2-yl)-1,3,4-oxadiazol-2-yl)(4-(quinolin-2-yl)-6,7-dihydro-1H-imidazo[4,5-c]pyridin-5(4H)-yl)methanone]	1000 to 5000 nM
CC(C)(C)c1ncc(C(=O)N2CCc3[nH]cnc3[C@@H]2c2cc3ccccc3cn2)s1 [Example 317, (S)-(2-(tert-butyl)thiazol-5-yl)(4-(isoquinolin-3-yl)-6,7-dihydro-1H-imidazo[4,5-c]pyridin-5(4H)-yl)methanone]	> 5000 nM
O=C(c1nnc(-c2c(F)cccc2F)o1)N1CCc2[nH]cnc2[C@@H]1c1cc2ccccc2cn1 [Example 335, (S)-(5-(2,6-difluorophenyl)-1,3,4-oxadiazol-2-yl)(4-(isoquinolin-3-yl)-6,7-dihydro-1H-imidazo[4,5-c]pyridin-5(4H)-yl)methanone]	1000 to 5000 nM
CC(O)c1nc(Br)c(C(=O)N2CCc3[nH]cnc3[C@@H]2c2ccc3ccccc3n2)o1 (single isomer, unassigned) [Example 132]	1000 to 5000 nM
O=C(c1cnn2cc(-c3ccccc3)ccc12)N1CCc2[nH]cnc2[C@H]1c1cc2ccccc2cn1 [Example 485, (R)-(4-(isoquinolin-3-yl)-6,7-dihydro-1H-imidazo[4,5-c]pyridin-5(4H)-yl)(6-phenylpyrazolo[1,5-a]pyridin-3-yl)methanone]	< 500 nM
Cn1ccc(-c2ccc3c(C(=O)N4CCc5[nH]cnc5[C@H]4c4cc5ccccc5cn4)cnn3c2)n1 [Example 481, (R)-(4-(isoquinolin-3-yl)-6,7-dihydro-1H-imidazo[4,5-c]pyridin-5(4H)-yl)(6-(1-methyl-1H-pyrazol-3-yl)pyrazolo[1,5-a]pyridin-3-yl)methanone]	< 500 nM
O=C(c1cncs1)N1CCc2[nH]cnc2C1c1ccc2ccccc2n1 (stereo in doubt) [Example 6, (S)-(4-(quinolin-2-yl)-6,7-dihydro-1H-imidazo[4,5-c]pyridin-5(4H)-yl)(thiazol-5-yl)methanone]	> 5000 nM

Reference: US20250262201A1, “COMPOUNDS AND METHODS USEFUL FOR STABILIZING PHENYLALANINE HYDROXYLASE MUTATIONS” (Agios Pharmaceuticals, Inc., priority 2022, published 2025)
